Reference: article PMC6269734, “Synthesis and Pharmacological Activities of Some New Triazolo- and Tetrazolopyrimidine Derivatives” (Molecules, 2013)
Like-named read-outs stand apart in the source and are kept apart here.

Legend:
[1] = system: carrageenan induced edema; experiment: Anti-inflammatory activity, carrageenan induced edema (paw volume, plethysmometer); assay type: in vivo, mice; settings: for inhibition in vivo at 5 mg/kg: Mus musculus, po, dose 5 mg/kg b.m (p.o.), n = 6, read-out: Edema inhibition (Means ± E.M); for anti-inflammatory activity (in words): grading in the structure activity discussion
Description: (§1) Female albino mice (16–18 g) and Sprague Dawley […] (100 g) obtained from the Theodor Bilharz Research Institute (TBRI, Giza city, Egypt) were used. Approval of the institutional animal ethical committee for the animal studies was obtained from the Office of Environmental Health and Radiation Safety, ACUC Protocol 1096-5. The animals were maintained according to accepted standards of animal care.
Newly synthesized thienopyrimidine derivatives were dissolved in 0.5% carboxymethyl cellulose (CMC) as a homogeneous solution and administered […]. One hundred and eight […] were divided into eighteen groups, each group consisting of six animals. Anti-inflammatory activity of the compounds was studied in mice using carrageenan induced edema. A suspension of the tested compound and the reference drug, indomethacin in aqueous solution was administered orally at a dose 5 mg/kg. Control animals were treated with 0.5% CMC only. After 30 min, 0.1 mL of freshly prepared 1.0% carrageenan solution (in formol saline) was injected into the sub-plantar region of the right hind paw according to Hernandez-Perez. The right paw volume was measured using a digital plethysmometer (Model 7150, Ugo Basile, Varese, Italy), directly before and after 1, 2, 3 h, intervals after administration of the tested compounds.

[2] = system: Gastric Ulceration in mice; experiment: Ulcerogenic activity (gastric ulceration in mice); assay type: in vivo; settings: oral, 6 h; for mean ulcer lesions ± SEM: n = 6
Description: as §1
Seventy-two mice were divided into twelve groups. Ulcerogenic activity was evaluated after oral administration of the tested compounds or indomethacin at doses of 10, 50, and 100 mg/kg. Control mice received 0.5% CMC. Food but not water was removed 24 h before administration of the tested compounds. After 6 h, the mice were sacrificed; the stomach was removed and opened along the greater curvature, washed with distilled water and cleaned gently by dipping in saline. The mucosa damage for each stomach was examined using a stereoscopic microscope and compared with the reference drug indomethacin according to the reported procedure.

Acute toxicity (LD50) = settings: mouse, in vivo, ip; male adult mice, i.p., mortality after 24 h, graphical method
Description: To determine the acute toxicity of the compounds, the LD50 values for compounds 2, 3, 6, 9 and 10 were determined by injecting different gradual increased doses of the tested compounds into male adult mice, then calculating the dose corresponding to 50% animal death (Table 3).
Groups of male adult mice, each of six animals, were injected i.p. with graded doses of each of the test compounds. The percentage of mortality in each group of animals was determined 24 h, after injection. Computation of LD50 was processed by a graphical method.

Q: With `COc1ccc(-c2nc(NN)c3c4c(sc3n2)CCCCCC4)cc1` [Compound 2, 2-(4-Methoxyphenyl)-4-hydrazinocycloocteno[4.5]thieno[2.3-d]pyrimidine] as the compound, how does the inhibition in vivo at 5 mg/kg ([1]; 1 h) read?
A: 42.3 ± 1.1%

Q: And the inhibition in vivo at 5 mg/kg ([1]; 2 h)?
A: 49.3 ± 1.1%

Q: What about the inhibition in vivo at 5 mg/kg ([1]; 3 h) of the same compound?
A: 57.1 ± 1.4%

Q: What about the “anti-inflammatory activity (in words)” value [1] of the same compound?
A: high

Q: What about the “number of mice lesions bigger than 0.5 mm in length per total no. of mice” value (“number … per total no. of mice” for short) ([2]; dose 10 mg/kg) of the same compound?
A: 0/6

Q: What about the “mean ulcer lesions ± SEM” value ([2]; dose 10 mg/kg) of the same compound?
A: 0 mm

Q: What about the “number … per total no. of mice” value ([2]; dose 50 mg/kg) of the same compound?
A: 0/6

Q: What about the “mean ulcer lesions ± SEM” value ([2]; dose 50 mg/kg) of the same compound?
A: 0 mm

Q: What about the “number … per total no. of mice” value ([2]; dose 100 mg/kg) of the same compound?
A: 0/6

Q: And the “mean ulcer lesions ± SEM” value ([2]; dose 100 mg/kg)?
A: 0 mm

Q: What about the LD50 at 24 h (Acute toxicity (LD50)) of the same compound?
A: 2514 ± 12 mg/kg

Q: Which results are given for `COc1ccc(-c2nc3sc4c(c3c3nnc(CC#N)n23)CCCCCC4)cc1` [Compound 3, 5-(4-Methoxyphenyl)-3-cyanomethylcycloocteno[4.5]thieno[2.3-d]triazolo[1,2,4]-[4,5-a]pyrimidine]?
A: inhibition in vivo at 5 mg/kg ([1]; 1 h): 37.2 ± 1.3%; inhibition in vivo at 5 mg/kg ([1]; 2 h): 46.3 ± 1.5%; inhibition in vivo at 5 mg/kg ([1]; 3 h): 54.4 ± 1.1%; anti-inflammatory activity (in words) [1]: high; LD50 at 24 h (Acute toxicity (LD50)): 2131 ± 13 mg/kg

Q: With `COc1ccc(C2=Nc3sc4c(c3C3=NCC(=O)N23)CCCCCC4)cc1` [Compound 4] as the compound, how does the inhibition in vivo at 5 mg/kg ([1]; 1 h) read?
A: 16.5 ± 1.3%

Q: What about the inhibition in vivo at 5 mg/kg ([1]; 2 h) of the same compound?
A: 17.2 ± 1.1%

Q: And the inhibition in vivo at 5 mg/kg ([1]; 3 h)?
A: 19.3 ± 1.2%

Q: What about the “anti-inflammatory activity (in words)” value [1] of the same compound?
A: weak

Q: Which results are given for `COc1ccc(-c2nc3sc4c(c3c3nc5ccccc5c(=O)n23)CCCCCC4)cc1` [Compound 5, 8-(4-Methoxyphenyl)-6-oxo-cycloocteno[4.5]thino[2,3-d]pyrimidino[4.3-b]quinazoline]?
A: inhibition in vivo at 5 mg/kg ([1]; 1 h): 11.7 ± 1.1%; inhibition in vivo at 5 mg/kg ([1]; 2 h): 13.2 ± 1.2%; inhibition in vivo at 5 mg/kg ([1]; 3 h): 15.2 ± 1.5%; anti-inflammatory activity (in words) [1]: weak

Q: Which results are given for `COc1ccc(-c2nc3sc4c(c3c3nnnn23)CCCCCC4)cc1` [Compound 6, 5-(4-Methoxyphenyl)-cycloocteno[4.5]thieno[2.3-d]tetrazolo[4.5-e]pyrimidine]?
A: inhibition in vivo at 5 mg/kg ([1]; 1 h): 34.5 ± 1.2%; inhibition in vivo at 5 mg/kg ([1]; 2 h): 42.1 ± 1.3%; inhibition in vivo at 5 mg/kg ([1]; 3 h): 48.2 ± 1.2%; anti-inflammatory activity (in words) [1]: high; LD50 at 24 h (Acute toxicity (LD50)): 2047 ± 12 mg/kg

Q: What does the source list for `COc1ccc(-c2nc3sc4c(c3c3n[nH]c(=O)c(=O)n23)CCCCCC4)cc1` [Compound 7, 6-(4-Methoxyphenyl)-3,4-dioxo-2H-cycloocteno[4.5]thieno[2,3-d]triazino[1,2.4]-[3,4-a]pyrimidine]?
A: inhibition in vivo at 5 mg/kg ([1]; 1 h): 20.8 ± 1.4%; inhibition in vivo at 5 mg/kg ([1]; 2 h): 22.3 ± 1.3%; inhibition in vivo at 5 mg/kg ([1]; 3 h): 25.1 ± 1.4%; anti-inflammatory activity (in words) [1]: moderate

Q: With `COc1ccc(C2=Nc3sc4c(c3C3=NNC(=O)CN23)CCCCCC4)cc1` [Compound 8, 6-(4-Methoxyphenyl)-3-oxo-2,4-dihydrocycloocteno[4,5]thieno[2,3-d]triazino-[1,2,4][3,4-a]pyrimidine] as the compound, how does the inhibition in vivo at 5 mg/kg ([1]; 1 h) read?
A: 21.3 ± 1.2%

Q: What about the inhibition in vivo at 5 mg/kg ([1]; 2 h) of the same compound?
A: 24.6 ± 1.1%

Q: What about the inhibition in vivo at 5 mg/kg ([1]; 3 h) of the same compound?
A: 26.5 ± 1.2%

Q: What about the “anti-inflammatory activity (in words)” value [1] of the same compound?
A: moderate

Q: With `COc1ccc(-c2nc3sc4c(c3c3n[nH]c(=O)n23)CCCCCC4)cc1` [Compound 9, 5-(4-Methoxy)phenyl-3-oxo-2H-cycloocteno[4,5]thieno[2,3-d][1,2,4]triazolo[4,5-a]pyrimidine] as the compound, how does the inhibition in vivo at 5 mg/kg ([1]; 1 h) read?
A: 31.2 ± 1.2%

Q: What about the inhibition in vivo at 5 mg/kg ([1]; 2 h) of the same compound?
A: 35.1 ± 1.5%

Q: And the inhibition in vivo at 5 mg/kg ([1]; 3 h)?
A: 40.2 ± 1.6%

Q: What about the “anti-inflammatory activity (in words)” value [1] of the same compound?
A: high

Q: What about the LD50 at 24 h (Acute toxicity (LD50)) of the same compound?
A: 1832 ± 12 mg/kg

Q: Which results are given for `COc1ccc(-c2nc3sc4c(c3c3nnc(C)n23)CCCCCC4)cc1` [Compound 10, 5-(4-Methoxyphenyl)-3-methyl-2H-cycloocteno[4,5]thieno[2,3-d][1,2,4]triazolo-[4,5-a] pyrimidine]?
A: inhibition in vivo at 5 mg/kg ([1]; 1 h): 39.1 ± 1.5%; inhibition in vivo at 5 mg/kg ([1]; 2 h): 48.4 ± 1.2%; inhibition in vivo at 5 mg/kg ([1]; 3 h): 55.6 ± 1.1%; anti-inflammatory activity (in words) [1]: high; number of mice lesions bigger than 0.5 mm in length per total no. of mice ([2]; dose 10 mg/kg): 0/6; mean ulcer lesions ± SEM ([2]; dose 10 mg/kg): 0 mm; number of mice lesions bigger than 0.5 mm in length per total no. of mice ([2]; dose 50 mg/kg): 0/6; mean ulcer lesions ± SEM ([2]; dose 50 mg/kg): 0 mm; number of mice lesions bigger than 0.5 mm in length per total no. of mice ([2]; dose 100 mg/kg): 0/6; mean ulcer lesions ± SEM ([2]; dose 100 mg/kg): 0 mm; LD50 at 24 h (Acute toxicity (LD50)): 2341 ± 11 mg/kg

Q: Which results are given for `COc1ccc(-c2nc3sc4c(c3c3nnc(Nc5ccccc5)n23)CCCCCC4)cc1` [Compound 12]?
A: inhibition in vivo at 5 mg/kg ([1]; 1 h): 19.4 ± 1.6%; inhibition in vivo at 5 mg/kg ([1]; 2 h): 21.3 ± 1.3%; inhibition in vivo at 5 mg/kg ([1]; 3 h): 23.3 ± 1.2%; anti-inflammatory activity (in words) [1]: moderate

Q: With `COc1ccc(-c2nc3sc4c(c3c3nnc(-c5ccccc5)n23)CCCCCC4)cc1` [Compound 14, 5-(4-Methoxyphenyl)-4-phenylcycloocteno[4,5]thieno[2,3-d][1,2,4]triazolo[4,5-c]pyrimidine] as the compound, how does the inhibition in vivo at 5 mg/kg ([1]; 1 h) read?
A: 7.3 ± 1.1%

Q: What about the inhibition in vivo at 5 mg/kg ([1]; 3 h) of the same compound?
A: 11.2 ± 1.5%

Q: And the “anti-inflammatory activity (in words)” value [1]?
A: weak

Q: With `COc1ccc2c(c1)c(CC(=O)O)c(C)n2C(=O)c1ccc(Cl)cc1` [Indomethacin, reference compound] as the compound, how does the inhibition in vivo at 5 mg/kg ([1]; 1 h) read?
A: 44.7 ± 1.2%

Q: What about the inhibition in vivo at 5 mg/kg ([1]; 2 h) of the same compound?
A: 52.4 ± 1.2%

Q: What about the inhibition in vivo at 5 mg/kg ([1]; 3 h) of the same compound?
A: 61.2 ± 1.3%

Q: What about the “number … per total no. of mice” value ([2]; dose 10 mg/kg) of the same compound?
A: 3/6

Q: What about the “mean ulcer lesions ± SEM” value ([2]; dose 10 mg/kg) of the same compound?
A: 1.4 ± 0.2 mm

Q: And the “number … per total no. of mice” value ([2]; dose 50 mg/kg)?
A: 5/6

Q: And the “mean ulcer lesions ± SEM” value ([2]; dose 50 mg/kg)?
A: 1.9 ± 0.2 mm

Q: What about the “number … per total no. of mice” value ([2]; dose 100 mg/kg) of the same compound?
A: 6/6

Q: And the “mean ulcer lesions ± SEM” value ([2]; dose 100 mg/kg)?
A: 2.1 ± 0.2 mm

Q: What about the LD50 at 24 h (Acute toxicity (LD50)) of the same compound?
A: 1817 ± 15 mg/kg
